Test system: antral portion of the stomach
Assay: Gastric contractility: distance between transducing crystals on the antral stomach
Format: in vivo, Sprague-Dawley rats
Settings: urethane-anesthetized rats
Description: Two male Sprague-Dawley rats, approximately 12 weeks old (Harlan, Indianapolis, Ind.) are anesthetized with urethane and their stomachs are exposed through a small abdominal incision. Two 2.4 mm transducing crystals (Sonometrics, Ontario, Canada) are placed on the antral portion of the stomach such that circular contractions could be monitored as a change in the distance between the two crystals. The crystals are attached with VETBOND TISSUE ADHESIVE (3M, St. Paul, Minn.). […] The amplitude of the NE-induced decrease is approximately 50% of the acetylcholine-induced increase in distance. Both responses are transient. A negative control of 10 μl of phosphate buffer solution (PBS) applied topically between the crystals has no effect. […] The ZS33LP at 1 μg induces a sustained, rhythmic increase and decrease in crystal distance.

In the case of `NC[C@H](O)c1ccc(O)c(O)c1` [norepinephrine], the “change in the distance between the two crystals (circular contractions)” value (10 μl of 1 μM applied topically to the stomach between the crystals) is reported as “reduction in the distance between the two crystals” and the “amplitude of the NE-induced decrease relative to the acetylcholine-induced increase in distance” value (10 μl of 1 μM applied topically) is reported as “approximately 50%”.
